Measured values taken from paper PMC3750255, “Inhibition of Mycoplasma pneumoniae growth by FDA-approved anticancer and antiviral nucleoside and nucleobase analogs” (BMC Microbiology, 2013).
≈ marks a conversion by molar mass, not a printed value.

B1: Mpn HPRT (Mycoplasmoides pneumoniae M129) (protein)
chain: MGIKSIIIDQKQVEAGCNAALKWCNEHFAGKQVIVLGILKGCIPFLGKLISQFTFDLQLDFVAVASYHGGSRQQEAPKIVLDMSHDPKGKDILLIEDIVDSGRSIKLVLDLLHTRKAKSVILVSFIEKLKPREADIKVDYSCFKNQDEFLVGFGLDYQGFYRNLPYVGVFDPEDN

Assays:
[1] = tested on: M. pneumoniae thyA mutant (lacking TS activity); experiment: microbe, parasite or virus in culture; format: cell-based, Mycoplasma pneumoniae; conditions: Mycoplasmoides pneumoniae, read-out: thyA mutant MIC
Method: (§1) A series dilution of each compound in Mycoplasma growth medium was added to Mpn cultures in 96-well plates. The plates were sealed and incubated at 37°C. Mpn growth was monitored by using growth index value e.g. the ratio of absorbance at 450 nm and 560 nm of the culture medium. Thirty nucleoside and nucleobase analogs and a nucleoside transporter inhibitor were included, and two Mpn strains, wild type and a thyA mutant (lacking TS activity), were used.
(§2) Nucleoside and nucleobase analogs were dissolved in dimethyl sulfoxide (DMSO) as stock solutions and diluted with Mpn culture medium to the desired concentration immediately prior to use.
(§3) Mpn laboratory strain M129 wild type and a thyA mutant strain [31] were used in this study. Mpn was cultured at 37°C in a CO2 incubator using 75 cm^2 tissue culture flasks containing 50 ml Hayflick’s medium, and harvested at day 4 when the medium color change was observed. The cells were harvested and the pellet was resuspended in 6 ml fresh medium and the cfu/ml was determined by serial dilution (10-fold) and plating on broth agar plate. Colonies was counted and cfu/ml was calculated.
(§4) Inhibition studies were performed in 96-well plates containing 200 μl Mpn culture (approximately 10^6 cfu ml^-1) in Hayflick’s medium and 200 μl each compound in series dilutions (2-fold) with the growth medium, with three to four replicas. The plates were sealed with clear adhesive sheets and incubated at 37°C incubator. Absorbance ratio at 450 nm and 560 nm was used as Mpn growth index, which was measured daily, and by visual detection for at least 8 days, as previously described. […] The MICs (minimal inhibitory concentration required to inhibit Mpn growth to 90%) were determined as the lowest concentration at which the growth index was ≈ 10% of the control values (at the time when the control culture medium color turned yellow), essentially as described.

Mpn wild type cells = experiment: Uptake and metabolism of tritium labelled natural nucleoside and nucleobases in the presence of analogs; format: cell-based, Mycoplasma pneumoniae
Method: The cells were harvested and analyzed essentially as described. Analogs used were dipyridamole, 6-thioguanine (6-TG), trifluorothymidine (TFT), gemcitabine (dFdC) and 5-fluorodeoxyuridine (5FdU). Total uptake is the percent of radioactivity recovered in the cells divided by total radioactivity added to the growth medium. Percent of acid insoluble (radioactivity found in DNA and RNA) was also calculated. These experiments were done more than three times and data are given as mean ± SD.

[2] = tested on: M. pneumoniae wild type (laboratory strain M129); experiment: Mpn growth inhibition in 96-well plates (growth index A450/A560), wild type strain; format: cell-based, Mycoplasma pneumoniae; conditions: Mycoplasmoides pneumoniae, read-out: Wild type MIC
Method: as §1, §2, §3, §4

TK in Mpn extracts = molecular target: T1, TK in Mpn extracts (Mycoplasmoides pneumoniae, UniProt P75070); experiment: Inhibition of dT phosphorylation in Mpn protein extracts; format: biochemical
T1 construct: endogenous in cells; host or cells: Mycoplasma pneumoniae M129 total protein extract
T1 sequence (P75070 1-191): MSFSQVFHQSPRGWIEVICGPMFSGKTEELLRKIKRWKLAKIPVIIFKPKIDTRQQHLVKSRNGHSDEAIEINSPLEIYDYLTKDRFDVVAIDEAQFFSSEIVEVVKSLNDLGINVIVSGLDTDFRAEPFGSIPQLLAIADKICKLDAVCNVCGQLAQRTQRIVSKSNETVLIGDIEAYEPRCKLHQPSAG
Method: Both TFT and 5FdU are substrates of Mycoplasma and human TKs, as described above and earlier studies.
(§5) Thymidine kinase assay was performed using tritium labelled thymidine ([^3H]-dT) as substrate and various concentrations of the inhibitors essentially as previously described to determine the IC50 values of TFT and 5FdU.

human TK1 = molecular target: T2, human TK1 (Homo sapiens, UniProt P04183); experiment: Thymidine kinase inhibition with [3H]-dT as substrate; format: biochemical; conditions: 10 μM tritium labelled thymidine
T2 construct: made in house
T2 sequence (P04183 1-234): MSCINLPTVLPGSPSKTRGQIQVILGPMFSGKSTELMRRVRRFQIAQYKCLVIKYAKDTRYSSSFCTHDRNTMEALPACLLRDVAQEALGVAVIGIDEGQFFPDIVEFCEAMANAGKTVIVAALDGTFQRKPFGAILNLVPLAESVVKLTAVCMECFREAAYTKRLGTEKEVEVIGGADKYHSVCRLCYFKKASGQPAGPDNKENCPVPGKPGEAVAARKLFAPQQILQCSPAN
Method: as §5

human TK2 = molecular target: T3, human TK2 (Homo sapiens, UniProt O00142); experiment: as above; format: biochemical; conditions: 10 μM tritium labelled thymidine
T3 construct: made in house
T3 sequence (O00142 34-265): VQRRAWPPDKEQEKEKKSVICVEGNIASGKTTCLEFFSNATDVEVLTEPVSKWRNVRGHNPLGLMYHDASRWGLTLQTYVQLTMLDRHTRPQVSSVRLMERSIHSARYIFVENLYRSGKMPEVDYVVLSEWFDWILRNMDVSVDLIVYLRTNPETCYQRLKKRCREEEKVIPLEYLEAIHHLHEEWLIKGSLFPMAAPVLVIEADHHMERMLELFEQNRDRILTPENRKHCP
Method: as §5

Ureaplasma TK = molecular target: T4, Ureaplasma TK (Ureaplasma parvum serovar 3, UniProt Q9PPP5); experiment: as above; format: biochemical; conditions: 10 μM tritium labelled thymidine
T4 construct: made in house
T4 sequence (Q9PPP5 1-223): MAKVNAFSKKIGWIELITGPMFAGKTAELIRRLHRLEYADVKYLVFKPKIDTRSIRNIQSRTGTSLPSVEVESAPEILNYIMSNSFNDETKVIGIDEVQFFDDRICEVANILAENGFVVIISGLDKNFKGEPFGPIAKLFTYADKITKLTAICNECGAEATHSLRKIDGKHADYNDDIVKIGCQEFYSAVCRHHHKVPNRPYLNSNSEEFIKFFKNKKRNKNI
Method: as §5

[3] = substrate: O=c1[nH]cnc2nc[nH]c12; experiment: purified protein, by the assay type; conditions: other: as substrate of Mpn HPRT, Michaelis-Menten; pH 7.5; 37.0 °C
[4] = 10 μM analog, 70 hours, 37°C, radioactivity in cells / total added
[5] = 10 μM analog, 70 hours, acid insoluble fraction / total in cells

Molecule	MIC [1] [mg/L]	Stimulation of [3H]-dT uptake (Mpn wild type cells; 10 μM analog versus control) [fold]	[3H]-Ade Total uptake (Mpn wild type cells; [4]) [%]	[3H]-Gua Total uptake (Mpn wild type cells; [4]) [%]	[3H]-Hx Total uptake (Mpn wild type cells; [4]) [%]	[3H]-Ura Total uptake (Mpn wild type cells; [4]) [%]	[3H]-dT Total uptake (Mpn wild type cells; [4]) [%]	[3H]-Ade Incorporation (Mpn wild type cells; [5]) [%]	[3H]-Gua Incorporation (Mpn wild type cells; [5]) [%]	[3H]-Hx Incorporation (Mpn wild type cells; [5]) [%]	[3H]-Ura Incorporation (Mpn wild type cells; [5]) [%]	[3H]-dT Incorporation (Mpn wild type cells; [5]) [%]	MIC [2] [mg/L]	IC50 (TK in Mpn extracts) [µM]	IC50 (human TK1) [µM]	IC50 (human TK2) [µM]	IC50 (Ureaplasma TK) [µM]	Km [3] [µM]
O=c1[nH]c(=O)n([C@H]2C[C@H](O)[C@@H](CO)O2)cc1F [5-fluorodeoxyuridine (5FdU), 5-fluorodeoxyuridine]	15.6 (≈ 63.4 µM)	2	0.36±0.1	0.16±0.03	0.006± 0.001	0.087±0.003	14.7±0.2	42±2	87±3	76±4	19±7	96.0±0.5	7.8 (≈ 31.7 µM)	47.9 ± 1.2	75.9 ± 2.6	158 ± 2.7	1000 ± 13.3	–
B1	–	–	–	–	–	–	–	–	–	–	–	–	–	–	–	–	–	100.1 ± 6.5
